Assay results published in US5977077A, “Xanthone analogs for the treatment of infectious diseases” (Interlab Corporation, priority 1996, dated 1999).
Converted amounts (≈) assume the structure as drawn. Read-outs that look alike come from different tables or passages of the source.

Legend:
[1] = tested on: Plasmodium falciparum (D6 strain); assay: In vitro anti-malarial activity, [3H]-ethanolamine incorporation; format: cell-based; conditions: for IC50: Plasmodium falciparum; for anti-malarial potency relative to 2,3,4,5,6-pentahydroxyxanthone: in words
Procedure: The D6 strain of P. falciparum was cultured in Group A^+ human erythrocytes and suspended at a 3.3% hematocrit in RPMI-1640 (Gibco, Grand Island, N.Y.) (containing 4 g/L glucose, 50 mg/L gentamicin and 10% group A^+ human serum), buffered with 25 mM HEPES and 25 mM NaHCO3 (Larrey, 1989). Cultures were maintained at 37° C. in a gas mixture of 5% oxygen, 5% CO2, and 90% nitrogen.
The in vitro anti-malarial activities of 2,3,4,5,6-pentahydroxyxanthone and other formula X1 compounds were measured by the [^3 H]-ethanolamine incorporation method as described in Elabbadi et al., 1992, with minor modifications. [^3 H]-ethanolamine was obtained from American Radiolabeled Chemicals, Inc., St. Louis, Mo. Experiments were conducted in 96 well plates in a total volume of 200 μl at a final red blood cell concentration of 3.3% (v/v). An initial parasitemia of 0.2 to 0.5% was attained by addition of normal uninfected red cells. Radiolabeled ethanolamine was added after 48 hours of incubation and the experiment was terminated after 72 hours by collecting the cells onto glass fiber filters with an automated multiwell harvester.
Stock solutions of the various formula X1 compounds were dissolved in DMSO at a concentration of 1 mM and diluted in complete medium (including 10% human serum) to provide 10× stock concentrations in the range of 1 to 10,000 nM. The concentration of the formula X1 compound giving 50% inhibition of label incorporation (IC50) relative to control (i.e., drug-free) conditions was calculated from the dose-response curve.

[2] = tested on: Candida albicans (clinical isolate); assay: Anti-Candida activity, minimum inhibitory concentration by visual inspection; format: cell-based; conditions: 15-18 hour incubation, 35° C., read-out: MIC against Candida albicans
Procedure: The minimum inhibitory concentration (MIC) of formula X1 compounds against a clinical isolate of Candida albicans was determined using the following method. […] The determination of this concentration is made by visual inspection; there is no visible growth in a tube containing the MIC of the formula X1 compound whereas visible growth is present in tubes containing sub-MIC concentrations of the compound.
Candida albicans was grown to midlog-phase in Luria-Bertani broth (10 grams Bacto-tryptone, 5 grams Bacto-yeast extract and 10 grams NaCl per liter) and then inoculated into sterile test tubes containing LB broth to an initial density of 10^3 /ml. The formula X1 compound to be tested is dissolved in dimethylsulfoxide (DMSO) at a concentration of 10 mM and added to each tube at serial dilutions (1 μM, 10 μM, 25 μM, 50 μM, 100 μM and 0 μM). The tubes are incubated at 35° C. for 15-18 hours and then visually inspected.

Leishmania donovani [3] = assay: In vitro anti-leishmania activity, radiolabeled thymidine uptake assay; format: cell-based; conditions: for IC50: Leishmania donovani
Procedure: Briefly, promastigotes were cultivated at 25° C. in Schneiders medium supplemented with 20% inactivated fetal calf serum and 100 μg/mL of gentamicin. Cells were maintained in log phase by seeding at 1×10^6 /mL with subculturing when cultured densities approached 4×10^7 /mL before reaching their maximal density. For the assay, early log phase promastigotes were counted on a hemacytometer and resuspended at a concentration of 1-2×10^6 cell/mL in assay media (Schneiders medium plus 10% fetal bovine serum). Ten-fold serial dilutions of each test compound were prepared as described above and added to 180 μL of the parasite suspension. After incubation for 24 hours at 25° C., methyl-^3 H-thymidine was added to each sample for a final concentration of 1-2 μCi per well. Each sample was then incubated for an additional 18 hours prior to harvesting. After this incubation time, each sample was aspirated onto a filter mat, washed thoroughly with deionized water, dried and then counted in a scintillation counter with scintillation cocktail.

Leishmania donovani [4] = conditions: reported by Grogl et al. (1992); cited from earlier work
[5] = Table 1, D6 strain, 72 h, read-out: IC50, μM vs. Plasmodium
[6] = D6 strain, 72 h, read-out: anti-malarial activity IC50
[7] = Table 2, read-out: IC50, mg/ml vs. Leishmania
[8] = promastigotes, read-out: anti-leishmanial activity IC50
[9] = D6, 72 h, read-out: IC50, μM vs. Plasmodium

IC50 [1, 5] [µM]	Structure (SMILES)	IC50 [1, 6] [µM]	IC50 (Leishmania donovani [3]; [7]) [mg/mL]	also measured
25 to 50	O=c1c2cc(O)c(O)c(O)c2oc2cc(O)c(O)c(O)c12 [1,2,3,5,6,7-Hexahydroxyxanthone, 1,2,3,5,6,7-Hexahydroxy-xanthone]	–	–	–
1	O=c1c2cc(O)c(O)c(O)c2oc2cc(O)cc(O)c12 [1,3,5,6,7-pentahydroxyxanthone, 1,3,5,6,7-pentahydroxy-xanthone]	–	–	–
> 100	O=c1c2ccccc2oc2cc(O)cc(O)c12 [1,3-dihydroxyxanthone, 1,3-dihydroxyxanthone]	–	–	–
> 100	COc1cc2c(=O)c3ccc(OC)c(OC)c3oc2c(OC)c1OC [2,3,4,5,6-pentamethoxyxanthone]	> 100	–	anti-malarial potency relative to 2,3,4,5,6-pentahydroxyxanthone [1]: essentially eliminated the anti-malarial activity
10	O=c1c2ccc(O)c(O)c2oc2c(O)c(O)ccc12 [3,4,5,6-Tetrahdroxyxanthone, 3,4,5,6-Tetrahdroxy-xanthone]	–	–	–
–	CCN(CC)CCCC(C)Nc1ccnc2cc(Cl)ccc12 (stereo not drawn) [Chloroquine, reference compound]	–	–	IC50 ([1]; D6, 72 h, read-out: anti-malarial activity IC50): ~0.02 µM
50	O=c1c2cc(O)c(O)cc2oc2cc(O)c([C@@H]3O[C@H](CO)[C@@H](O)[C@H](O)[C@H]3O)c(O)c12 [Mangiferin, reference compound]	–	> 0.05	–
–	COc1c(O)cc2oc3cc(O)c(CC=C(C)C)c(O)c3c(=O)c2c1CC=C(C)C [Mangostin, reference compound]	–	0.00041	IC50 [1, 9]: 5 µM; IC50 (Leishmania donovani [3]; read-out: anti-leishmanial activity IC50): 0.00041 mg/mL; IC50 (Leishmania donovani [3]; [8]): 1000 nM
–	O.O.O.O.O.O.O.O.O.O=C([O-])[C@@H]1[O][Sb](=[O])([O][Sb]2(=[O])[O][C@H]([C@H](O)CO)[C@H](O)[C@H](C(=O)[O-])[O]2)[O][C@H]([C@H](O)CO)[C@@H]1O.[Na+].[Na+].[Na+] (stereo partly drawn) [Pentostam]	–	–	IC50 values of commonly used anti-leishmanial drugs (Leishmania donovani [4]): 100 to 2000 µg/mL
–	O=c1c2ccccc2oc2ccccc12 [Xanthone]	–	–	IC50 [1, 9]: 10 µM

Structure (SMILES)	IC50 [1, 5] [µM]	IC50 [1, 6] [µM]	IC50 (Leishmania donovani [3]; [7]) [mg/mL]	also measured
O=c1c2cc(O)c(O)c(O)c2oc2c(O)c(O)c(O)cc12 [2,3,4,5,6,7-hexahydroxyxanthone]	0.075	0.075	0.0015	MIC [2]: ~37.5 µM (≈ 11 µg/mL); IC50 (Leishmania donovani [3]; [8]): ~5000 nM
CC(=O)Oc1cc2c(=O)c3ccc(OC(C)=O)c(OC(C)=O)c3oc2c(OC(C)=O)c1OC(C)=O [2,3,4,5,6-pentaacetoxyxanthone]	0.075	~0.075	–	anti-malarial potency relative to 2,3,4,5,6-pentahydroxyxanthone [1]: several times more potent
O=c1c2ccc(O)c(O)c2oc2c(O)c(O)c(O)cc12 [2,3,4,5,6-pentahydroxyxanthone]	0.4 to 0.5	0.4 to 0.5	0.0015	MIC [2]: ~37.5 µM (≈ 10.4 µg/mL); IC50 (Leishmania donovani [3]; [8]): ~5000 nM; anti-leishmanial activity IC50 (Leishmania donovani [3]; promastigotes, value in mg/ml): ~1 µg/mL
